Experimental data from article PMC4503722, “Novel Phenotypic Outcomes Identified for a Public Collection of Approved Drugs from a Publicly Accessible Panel of Assays” (PLoS ONE, 2015).
Read-outs that look alike come from different tables or passages of the source.

B1: Pegfilgrastim: Drug A generic name in the FAERS table (protein, UniProt P09919 31-207, looked up)
Granulocyte …: TPLGPASSLPQSFLLKCLEQVRKIQGDGAALQEKLVSECATYKLCHPEELVLLGHSLGIPWAPLSSCPSQALQLAGCLSQLHSGLFLYQGLLQALEGISPELGPTLDTLQLDVADFATTIWQQMEELGMAPALQPTQGAMPAFASAFQRRAGGVLVASHLQSFLEVSYRVLRHLAQP
modifications: pegfilgrastim; PEG; N-terminal Met

What was measured:
[1] = test system: HeLa cells; assay: cells; type: cell-based
[2] = test system: INS-1E cells; type: cell-based, rat;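 on 5mMGluc INS1E SecretionMod IC50/EC50: secreted insulin quantified by homogeneous immunoassay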;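 on IC50/EC50, 5mMGluc INS1E SecretionMod (assay number 8): secreted insulin quantified by homogeneous immunoassay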
[3] = test system: tonic K+ channel activity in INS-1E cells; assay: cells; type: cell-based, rat
[4] = test system: INS-1E cells; assay: cells; type: cell-based, rat
[5] = test system: DLD-1; assay: cells; type: cell-based; conditions: assay number 23; basal
[6] = test system: SW480; assay: cells; type: cell-based; conditions: assay number 24; basal
[7] = test system: HCT116; assay: cells; type: cell-based; conditions: assay number 25; basal
[8] = test system: SNU-C1; assay: cells; type: cell-based; conditions: assay number 30; basal
[9] = test system: RKO; assay: cells; type: cell-based; conditions: assay number 29; basal
[10] = test system: HT-29; assay: cells; type: cell-based; conditions: assay number 28; basal
[11] = test system: Colo320; assay: cells; type: cell-based; conditions: assay number 27; basal
[12] = FAERS, ref [45], cited from earlier work; for Adjusted Z-Score: Drug A with vs without methotrexate; for # of Specific AE Occurrence With Drug A With Drug B: with methotrexate; for # of Specific AE Occurrence With Drug A Without Drug B: without methotrexate
[13] = test system: STC-1 cell line; type: cell-based, mouse; conditions: assay number 13
[14] = test system: NCI-H716 cells; assay: cells; type: cell-based, Human; conditions: assay number 12
[15] = assay number 10, 0.1 mM glucose

Molecule | Hela CellCycMod PI 2N IC50/EC50 ([1]; assay number 14, 2N) | Hela CellCycMod PI S Phase IC50/EC50 ([1]; assay number 15, S phase) | Hela CellCycMod PI 4N IC50/EC50 ([1]; assay number 16, 4N) | Hela CellCycMod PI MI IC50/EC50 ([1]; assay number 17, MI) | Hela CellCycMod PI Cell Number IC50/EC50 ([1]; assay number 18, cell number) | 0.1mMGluc_INS1E SecretionMod Act IC50/EC50 ([2]; assay number 9, 0.1 mM glucose) | 0.1mMGluc_INS1E FluxOR IC50/EC50 [3, 15] | 5mMGluc_INS1E SecretionMod IC50/EC50 ([4]; assay number 8, 5 mM glucose) | also measured
CN(C)CCC=C1c2ccccc2CCc2ccccc21.Cl [NCGC00015095-15] | – | – | – | – | – | – | – | – | IC50/EC50, Hela CellCycMod PI 2N (assay number 14) ([1]; 2N): > 10 µM; IC50/EC50, Hela CellCycMod PI 4N (assay number 16) ([1]; 4N): > 10 µM; IC50/EC50, Hela CellCycMod PI Cell Number (assay number 18) [1]: > 10 µM; IC50/EC50, Hela CellCycMod PI MI (assay number 17) ([1]; MI): > 10 µM; IC50/EC50, Hela CellCycMod PI S Phase (assay number 15) [1]: > 10 µM; IC50/EC50, 0.1mMGluc_INS1E SecretionMod Act (assay number 9) ([2]; 0.1 mM glucose): > 33.33 µM; IC50/EC50, 0.1mMGluc_INS1E FluxOR (assay number 10) ([3]; 0.1 mM glucose): 6.243 µM; IC50/EC50, 5mMGluc_INS1E SecretionMod (assay number 8) ([4]; 5 mM glucose): 2.999 µM
CN(C)CCOC(c1ccccc1)c1ccc(Br)cc1 (stereo not drawn) [NCGC00249891-01] | > 10 µM | > 10 µM | > 10 µM | > 10 µM | > 10 µM | > 33.33 µM | 10.9665 µM | 2.767 µM | Basal_Viability ATP DLD-1 IC50/EC50 [5]: > 20 µM; Basal_Viability ATP SW480 IC50/EC50 [6]: > 20 µM; Basal_Viability ATP HCT116 IC50/EC50 [7]: > 20 µM; Basal_Viability ATP SNU-C1 IC50/EC50 [8]: 3.0987 µM; Basal_Viability ATP RKO IC50/EC50 [9]: > 20 µM; Basal_Viability ATP HT-29 IC50/EC50 [10]: 17.0256 µM; Basal_Viability ATP Colo 320 IC50/EC50 [11]: > 20 µM
CCCNCC(O)COc1ccccc1C(=O)CCc1ccccc1 (stereo not drawn) [NCGC00015819-15] | > 10 µM | > 10 µM | > 10 µM | > 10 µM | > 10 µM | > 33.33 µM | 5.346 µM | 4.919 µM | –
[H]/N=C(\N/C(=N/[H])NCCCCCCNC(=N)NC(=N)Nc1ccc(Cl)cc1)Nc1ccc(Cl)cc1 [Chlorhexidine] | – | – | – | – | – | – | – | – | Adjusted Z-Score ([12]; AE OSTEONECROSIS): -2.347; # of Specific AE Occurrence With Drug A With Drug B ([12]; AE OSTEONECROSIS): 31; # of Specific AE Occurrence With Drug A Without Drug B ([12]; AE OSTEONECROSIS): 899
Clc1ccc2c(c1)CCc1cccnc1C2=C1CCNCC1 [NCGC00159325-05] | – | – | – | – | – | > 33.33 µM | > 33.3333 µM | 7.105 µM | mSTC-1 GLP1 Secretion IC50/EC50 [13]: > 40 µM; hNCI-H716 GLP1 Secretion IC50/EC50 [14]: > 40 µM
COc1cccc2c1C(=O)c1c(O)c3c(c(O)c1C2=O)C[C@@](O)(C(=O)CO)C[C@@H]3O[C@H]1C[C@H](N)[C@H](O)[C@H](C)O1 [Doxorubicin] | – | – | – | – | – | – | – | – | # of Specific AE Occurrence With Drug A With Drug B ([12]; AE BONE DISORDER): 49; # of Specific AE Occurrence With Drug A Without Drug B ([12]; AE BONE DISORDER): 912
CCN(CC)CCOc1ccccc1C(=O)CCc1ccccc1 [NCGC00160484-02] | – | – | – | – | – | – | – | – | IC50/EC50, Hela CellCycMod PI 2N (assay number 14) ([1]; 2N): > 10 µM; IC50/EC50, Hela CellCycMod PI 4N (assay number 16) ([1]; 4N): > 10 µM; IC50/EC50, Hela CellCycMod PI Cell Number (assay number 18) [1]: > 10 µM; IC50/EC50, Hela CellCycMod PI MI (assay number 17) ([1]; MI): > 10 µM; IC50/EC50, Hela CellCycMod PI S Phase (assay number 15) [1]: > 10 µM; IC50/EC50, 0.1mMGluc_INS1E SecretionMod Act (assay number 9) ([2]; 0.1 mM glucose): > 33.33 µM; IC50/EC50, 0.1mMGluc_INS1E FluxOR (assay number 10) ([3]; 0.1 mM glucose): 6.739 µM; IC50/EC50, 5mMGluc_INS1E SecretionMod (assay number 8) ([4]; 5 mM glucose): 3.892 µM
CC(CC1c2ccccc2CCc2ccccc21)CN(C)C (stereo not drawn) [NCGC00274277-01] | – | – | – | – | – | – | – | – | Hela CellCycMod PI 2N IC50/EC50 [1]: > 10 µM; Hela CellCycMod PI 4N IC50/EC50 [1]: > 10 µM; Hela CellCycMod PI Cell Number IC50/EC50 [1]: > 10 µM; Hela CellCycMod PI MI IC50/EC50 [1]: > 10 µM; Hela CellCycMod PI S Phase IC50/EC50 [1]: > 10 µM; 0.1mMGluc_INS1E SecretionMod Act IC50/EC50 [2]: > 33.33 µM; 0.1mMGluc_INS1E FluxOR IC50/EC50 [3]: 19.9984 µM; 5mMGluc_INS1E SecretionMod IC50/EC50 [4]: 3.6382 µM
CCN(CCCCOC(=O)c1ccc(OC)c(OC)c1)C(C)Cc1ccc(OC)cc1.Cl (stereo not drawn) [NCGC00018277-06] | > 10 µM | > 10 µM | > 10 µM | > 10 µM | > 10 µM | > 33.33 µM | 1.737 µM | 1.952 µM | –
CCC(=O)c1ccc2c(c1)N(CCCN(C)C)c1ccccc1S2.Cl [NCGC00015838-06] | – | – | – | – | – | > 33.33 µM | 25.7434 µM | 10.7311 µM | –
CCN(CC)CCCN(c1ccccc1)C1Cc2ccccc2C1.Cl [NCGC00167576-02] | – | – | – | – | – | > 33.33 µM | 14.9742 µM | 7.1279 µM | –
Cc1ccc(S(=O)(=O)NC(=O)NN2CC3CCCC3C2)cc1 (stereo not drawn) [NCGC00095107-09] | > 10 µM | > 10 µM | > 10 µM | > 10 µM | > 10 µM | > 33.33 µM | 0.6403 µM | 1.834 µM | –
Cc1ccc(CCn2c3c(c4cc(Cl)ccc42)CN(C)CC3)cn1 [NCGC00253726-01] | > 10 µM | > 10 µM | > 10 µM | > 10 µM | > 10 µM | > 33.33 µM | 39.9057 µM | 4.201 µM | –
B1 | – | – | – | – | – | – | – | – | Adjusted Z-Score ([12]; AE BONE PAIN): -2.755; # of Specific AE Occurrence With Drug A With Drug B ([12]; AE BONE PAIN): 13; # of Specific AE Occurrence With Drug A Without Drug B ([12]; AE BONE PAIN): 641
